According to paper PMC6222509, “Dibasic Derivatives of Phenylcarbamic Acid against Mycobacterial Strains: Old Drugs and New Tricks?” (Molecules : A Journal of Synthetic Chemistry and Natural …, 2018):
Converted amounts (≈) assume the structure as drawn. Read-outs that look alike come from different tables or passages of the source.

Key:
[1] = tested on: M. kansasii CNCTC My 235/80 (identical with ATCC 12478; MK 235/80); assay: in vitro antimycobacterial MIC, dilution micromethod in Šula's semisynthetic medium; assay type: cell-based, Mycobacterium kansasii
[2] = tested on: Mycobacterium tuberculosis CNCTC My 331/88 (identical with H37Rv and ATCC 2794; MTv H37Rv); assay: as above; assay type: cell-based
[3] = tested on: M. marinum CAMP 5644 (MM); assay: in vitro antimycobacterial MIC, broth dilution micromethod in Middlebrook 7H9; assay type: cell-based, Mycobacterium marinum
white mice = conditions: subcutaneous application; cited from earlier work
guinea pig = tested on: guinea pig; parameters: method as in PMID 8402965; conditions: intradermal, 0.02 M procaine as standard; cited from earlier work
rabbit cornea = tested on: rabbit cornea; parameters: method as in PMID 8402965; conditions: 0.01 M cocaine as standard; cited from earlier work
[4] = Mycobacterium kansasii, ATCC12478, 168 h, 7-day cultivation, read-out: MIC MK 235/80 7-d
[5] = Mycobacterium kansasii, ATCC12478, 336 h, 14-day cultivation, read-out: MIC MK 235/80 14-d
[6] = Mycobacterium kansasii, ATCC12478, 504 h, 21-day cultivation, read-out: MIC MK 235/80 21-d
[7] = Mycobacterium tuberculosis, 336 h, 14-day cultivation, read-out: MIC MTv H37Rv 14-d
[8] = Mycobacterium tuberculosis, 504 h, 21-day cultivation, read-out: MIC MTv H37Rv 21-d
[9] = Mycobacterium marinum, 504 h, 21-day cultivation, 28 °C, read-out: MIC MM 21-d
[10] = Mycobacterium kansasii, ATCC12478, 168 h, read-out: MIC MK 235/80 7-d
[11] = Mycobacterium kansasii, ATCC12478, 336 h, read-out: MIC MK 235/80 14-d
[12] = Mycobacterium kansasii, ATCC12478, 504 h, read-out: MIC MK 235/80 21-d
[13] = Mycobacterium marinum, 504 h, read-out: MIC MM 21-d, 21-day cultivation, 28 °C
[14] = Mycobacterium kansasii, ATCC12478, read-out: MIC MK 235/80
[15] = 14-day cultivation, read-out: MIC MK 235/80 14-d
[16] = 21-day cultivation, read-out: MIC MK 235/80 21-d

| SMILES | MIC [1, 4] [µM] | MIC [1, 5] [µM] | MIC [1, 6] [µM] | MIC [2, 7] [µM] | MIC [2, 8] [µM] | MIC [3, 9] [µM] | MIC [1, 10] [µM] | MIC [1, 11] [µM] | MIC [1, 12] [µM] | MIC [3, 13] [µM] | other results |
| --- | --- | --- | --- | --- | --- | --- | --- | --- | --- | --- | --- |
| CCCCOc1ccccc1NC(=O)OC(CN(CCC)CCC)CN1CCCC1 (stereo not shown) [1a] | 62.5 (≈ 26.2 µg/mL) | 62.5 (≈ 26.2 µg/mL) | 62.5 (≈ 26.2 µg/mL) | 32 (≈ 13.4 µg/mL) | 32 (≈ 13.4 µg/mL) | 106 (≈ 44.5 µg/mL) |  |  |  |  |  |
| CCCCCOc1ccccc1NC(=O)OC(CN(CCC)CCC)CN1CCCC1 (stereo not shown) [1b] | 32 (≈ 13.9 µg/mL) | 32 (≈ 13.9 µg/mL) | 62.5 (≈ 27.1 µg/mL) | 16 (≈ 6.94 µg/mL) | 32 (≈ 13.9 µg/mL) | 52 (≈ 22.5 µg/mL) |  |  |  |  |  |
| CCCCCCOc1ccccc1NC(=O)OC(CN(CCC)CCC)CN1CCCC1 (stereo not shown) [1c] | 32 (≈ 14.3 µg/mL) | 32 (≈ 14.3 µg/mL) | 32 (≈ 14.3 µg/mL) | 16 (≈ 7.16 µg/mL) | 16 (≈ 7.16 µg/mL) | 25.5 (≈ 11.4 µg/mL) |  |  |  |  | LD50 (white mice): 600 mg/kg |
| CCCCCCCOc1ccccc1NC(=O)OC(CN(CCC)CCC)CN1CCCC1.Cl.Cl (stereo not shown) [1d, 1-[2-[({[2-(heptyl-oxy)phenyl]amino}carbonyl)oxy]-3-(dipropylammonio)propyl]pyrrolidinium dichloride] |  |  |  | 8 | 8 |  | 16 | 16 | 32 | 12.5 |  |
| CCCCOc1cccc(NC(=O)OC(CN(CCC)CCC)CN2CCCC2)c1 (stereo not shown) [1e] | 32 (≈ 13.4 µg/mL) | 32 (≈ 13.4 µg/mL) | 32 (≈ 13.4 µg/mL) | 16 (≈ 6.71 µg/mL) | 32 (≈ 13.4 µg/mL) | 32.5 (≈ 13.6 µg/mL) |  |  |  |  |  |
| CCCCCOc1cccc(NC(=O)OC(CN(CCC)CCC)CN2CCCC2)c1.Cl.Cl (stereo not shown) [1f, 1-[2-[({[3-(pentyloxy)phenyl]amino}carbonyl)oxy]-3-(dipropylammonio)propyl]-pyrrolidinium dichloride] |  |  |  | 16 | 16 |  | 16 | 16 | 32 | < 3.9 | Ui, index of relative infiltration local anesthetic efficiency (guinea pig): 250; Us, index of relative surface local anesthetic efficiency (rabbit cornea): 130 |
| CCCCCCOc1cccc(NC(=O)OC(CN(CCC)CCC)CN2CCCC2)c1 (stereo not shown) [1g] | 16 (≈ 7.16 µg/mL) | 16 (≈ 7.16 µg/mL) | 16 (≈ 7.16 µg/mL) | 8 (≈ 3.58 µg/mL) | 16 (≈ 7.16 µg/mL) | < 3.8 |  |  |  |  |  |
| CCCCCCCOc1cccc(NC(=O)OC(CN(CCC)CCC)CN2CCCC2)c1.Cl.Cl (stereo not shown) [1h, 1-[2-[({[3-(heptyloxy)phenyl]amino}carbonyl)oxy]-3-(dipropylammonio)propyl]pyrrolidinium dichloride] |  |  |  | 4 | 8 |  | 8 | 8 | 8 | < 3.7 | MIC [1, 14]: 8 µM; MIC ([3]; 21-day cultivation, 28 °C, read-out: MIC MM 21-d): <3.7 µM |
| CCCCOc1ccccc1NC(=O)OC(CN(CCC)CCC)CN1CCCCCC1 (stereo not shown) [1i] | 32 (≈ 14.3 µg/mL) | 62.5 (≈ 28 µg/mL) | 62.5 (≈ 28 µg/mL) | 16 (≈ 7.16 µg/mL) | 32 (≈ 14.3 µg/mL) | 51 (≈ 22.8 µg/mL) |  |  |  |  |  |
| CCCCCOc1ccccc1NC(=O)OC(CN(CCC)CCC)CN1CCCCCC1.O=C(O)C(=O)O (stereo not shown) [1j, 1-[2-[({[2-(Pentyloxy)phenyl]amino}carbonyl)oxy]-3-(dipropylammonio)propyl]-azepanium oxalate] |  |  |  | 16 | 32 |  | 16 | 32 | 62.5 | 50 |  |
| CCCCCCOc1ccccc1NC(=O)OC(CN(CCC)CCC)CN1CCCCCC1 (stereo not shown) [1k] | 16 (≈ 7.61 µg/mL) | 32 (≈ 15.2 µg/mL) | 62.5 (≈ 29.7 µg/mL) | 8 (≈ 3.81 µg/mL) | 16 (≈ 7.61 µg/mL) | 98 (≈ 46.6 µg/mL) |  |  |  |  |  |
| CCCCCCCOc1cccc(NC(=O)OC(CN(CCC)CCC)CN2CCCCCC2)c1.O=C(O)C(=O)O (stereo not shown) [1l, 1-[2-[({[3-(hept-yloxy)phenyl]amino}carbonyl)oxy]-3-(dipropylammonio)propyl]azepanium oxalate] | 16 |  |  | 4 | 8 | 191 |  |  |  |  | MIC [1, 15]: 32 µM; MIC [1, 16]: 32 µM |
| CCCCOc1cccc(NC(=O)OC(CN(CCC)CCC)CN2CCCCCC2)c1 (stereo not shown) [1m] | 16 (≈ 7.16 µg/mL) | 16 (≈ 7.16 µg/mL) | 32 (≈ 14.3 µg/mL) | 8 (≈ 3.58 µg/mL) | 16 (≈ 7.16 µg/mL) |  |  |  |  | 15.4 (≈ 6.89 µg/mL) |  |
| CCCCCOc1cccc(NC(=O)OC(CN(CCC)CCC)CN2CCCCCC2)c1.Cl.Cl (stereo not shown) [1n, 1-[2-[({[3-(pentyloxy)phenyl]amino}carbonyl)oxy]-3-(di-propylammonio)propyl]azepanium dichloride] |  |  |  | 4 | 8 |  | 8 | 8 | 8 | 15 | MIC [1, 14]: 8 µM |
| CCCCCCOc1cccc(NC(=O)OC(CN(CCC)CCC)CN2CCCCCC2)c1.Cl.Cl (stereo not shown) [1o, 1-[2-[({[3-(hexyloxy)phenyl]amino}-carbonyl)oxy]-3-(dipropylammonio)propyl]azepanium dichloride] |  |  |  | 8 | 16 |  | 8 | 16 | 16 | 7.3 |  |
| CCCCCCCOc1cccc(NC(=O)OC(CN(CCC)CCC)CN2CCCCCC2)c1.Cl.Cl (stereo not shown) [1p, 1-[2-[({[3-(heptyloxy)phenyl]amino}carbonyl)-oxy]-3-(dipropylammonio)propyl]azepanium dichloride] |  |  |  |  |  |  |  |  |  | 7.1 | MIC ([1]; 7-day cultivation, read-out: MIC MK 235/80 7-d): 8 µM; MIC [1, 15]: 8 µM; MIC [1, 16]: 8 µM; MIC ([1]; Mycobacterium kansasii, ATCC12478, cultivation time not given, read-out: MIC MK 235/80): 8 µM; MIC ([2]; 14-day cultivation, read-out: MIC MTv H37Rv 14-d): 4 µM; MIC ([2]; 21-day cultivation, read-out: MIC MTv H37Rv 21-d): 8 µM |
